Experimental data: patent publication US4689218A, “Effervescent composition with analgesic activity” (priority 1985, dated 1987)
Entries after “also recorded” stand apart in the source; their conditions may differ.

Columns and labels:
[1] = Stability (degradation, colour) of lysine-containing preparation; format: physicochemical; details: larger amounts of lysine (more than 30-40% of arginine substituted)
[2] = cited from earlier work
[3] = oral route, tablet; cited from earlier work
oral and gastric mucosa = details: oral administration (b7), mucosa of the mouth, aqueous suspension (b9); cited from earlier work

Structure (SMILES) | Degradation / brown colour of the pharmaceutical preparation [1] | Solubility in water [2] | Kinetics of absorption [3] | Irritability of mucosa (oral and gastric mucosa)
NCCCC[C@H](N)C(=O)O [lysine] | easily degrades making of a brown colour the pharmaceutical preparation | – | – | –
CC(C)Cc1ccc(C(C)C(=O)O)cc1 (stereo not shown) [Ibuprofen, 2-(4-isobutyl-phenyl)-propionic acid] | – | very low solubility in water | relatively slow kinetics of absorption | some irritability of gastric mucosa; also recorded: irritant for the mucosa of the mouth
